Laboratory results taken from patent US11298363B2, “Triazolobenzazepines as vasopressin V1a receptor antagonists” (RICHTER GEDEON NYRT., priority 2017, dated 2022).
Structures can show the parent of a compound that is named as a salt.

What was measured:
[1] = target: T1, human vasopressin V1a receptor (Homo sapiens, UniProt P37288); assay: Functional assay on human vasopressin V1a receptor expressing cell line (intracellular Ca2+ fluorescence); assay type: cell-based; conditions: 1321N1 cells, (Arg8)-vasopressin at EC80; read-out: IC50 (nM) on hV1a cell line
T1 sequence (P37288 whole entry): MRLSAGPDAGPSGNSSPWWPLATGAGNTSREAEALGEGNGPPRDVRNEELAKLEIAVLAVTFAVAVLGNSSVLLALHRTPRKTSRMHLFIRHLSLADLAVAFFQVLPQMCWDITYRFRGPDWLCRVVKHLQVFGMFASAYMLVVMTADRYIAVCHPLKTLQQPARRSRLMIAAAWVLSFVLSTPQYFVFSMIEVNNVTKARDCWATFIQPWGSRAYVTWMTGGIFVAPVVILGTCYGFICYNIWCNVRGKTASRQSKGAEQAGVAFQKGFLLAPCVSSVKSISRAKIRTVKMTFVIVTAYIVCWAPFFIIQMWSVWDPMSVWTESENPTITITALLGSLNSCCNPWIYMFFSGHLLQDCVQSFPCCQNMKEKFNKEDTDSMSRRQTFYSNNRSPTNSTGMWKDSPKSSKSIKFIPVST
Experimental: Functional Assay to Test Compounds on Human Vasopressin V1a Receptor Expressing Cell Line
The ordinary secondary messenger pathway of the measured GPCR receptor was used, the endogenous Gq-associated system.
Using 30,000 cells/plate, compounds were measured on 96-well plates. The buffer composition of the measurements was the following (expressed in mM): 140 NaCl, 5 KCl, 2 CaCl2), 2 MgCl2, 10 glucose, 10 HEPES (4-(2-hydroxyethyl)-1-piperazine-ethanesulfonic acid), 2 probenecid, pH=7.4. FLIPR Calcium 5 kit (Molecular Devices) was used as fluorescent dye, the medium was not removed prior to filling with the dye and the cells were not washed out either before or after. The incubation was performed at room temperature, the final concentration of DMSO was 1%. The materials to be measured were administered in 15 to 20 minutes pretreatment, at least two parallels of each compound in each concentration was measured.
Fluorescence signal was used to determine the intracellular Ca^2+ level, the reader was FlexStation II96. […] The fluorescence signal was logged in every 1.4 seconds for 1 minute. The reference compounds used were the following: (Arg^8)-vasopressin as agonist at concentration of EC80, determined for each plate, and relcovaptan as antagonist at 1 μM. The % of inhibition at each concentration and the IC50 value of the compounds were determined where a concentration line was also measured.
The total AVP concentration-response curve was recorded on each plate. The effect of compounds measured was expressed by percentage of relative inhibition compared to control response. […] The average IC50 values were calculated from at least three independent measurements in all cases.

[2] = target: T1, human vasopressin V1a receptor; assay: Human vasopressin V1a receptor binding assay; conditions: for Ki: 1321N1 cell membranes, [3H]vasopressin, read-out: Ki (nM) on hV1a cell line
Experimental: Human Vasopressin V1a Receptor Binding Assay
Cells were suspended in preparative buffer (50 mM Tris, 1 mM EDTA, 0.1 mM PMSF) and homogenized with glass homogenizing potter. To separate the raw membrane fraction two consecutive centrifugation procedures (40,000 g for 20 minutes at 4° C.) were executed, then the membrane was taken into the preparatory buffer during a final washing step, it was divided into aliquots which were stored at −80° C. until the time of measurement.
To determine the final affinity value, the results of at least two independent experiments were taken into account.
Non-specific binding values were determined in the presence of unlabeled 1.2×10^−6 M (Arg^8)-vasopressin. Samples were incubated in a total volume of 0.33 ml for 60 minutes at 27° C. Membrane-bound and free ligands were separated by filtration through a 0.5% polyethyleneimine-impregnated UniFilter® GF/B™. After drying the filter plates, 40 μl Microscint-20 (Packard) scintillation cocktail was added to the samples. Finally, radioactivity was measured using MicroBeta^2 Microplate Counter (Perkin Elmer).
During fitting, the asymptotes are not fixed. The K values (inhibition constant) are given with Cheng-Prusoff equation Ki=IC50/[1+(L/KD)] wherein [L] is the radioligand concentration used in the experiment and [KD] is the affinity of the radioactively labelled ligand for the given receptor. The KD is determined beforehand using the Scatchard curve.

**Q.** With `COC1(C)CCC(c2nnc3n2-c2ccc(Cl)cc2CC(NC(C)C)C3)CC1` (mixture of isomers) [Example 203, 8-chloro-1-(4-methoxy-4-methylcyclohexyl)-N-(propan-2-yl)-5,6-dihydro-4H-[1,2,4]triazolo[4,3-a][1]benzazepin-5-amine] as the molecule, how does the IC50 [1] read?
**A.** 210 nM

**Q.** What about the Ki [2] of the same molecule?
**A.** 10.1 nM

**Q.** Which IC50 [1] does the source give for `CO[C@@H]1Cc2cc(Cl)ccc2-n2c(nnc2[C@H]2CC[C@H](C(F)(F)F)CC2)C1` (single isomer, unassigned) [Example 132] here?
**A.** 2.5 nM

**Q.** What about the Ki [2] of the same molecule?
**A.** 0.3 nM

**Q.** How did the IC50 [1] turn out when `CO[C@H]1Cc2cc(Cl)ccc2-n2c(nnc2[C@H]2CC[C@H](C(F)(F)F)CC2)C1` (single isomer, unassigned) [Example 133] was run?
**A.** 6.5 nM

**Q.** What about the Ki [2] of the same molecule?
**A.** 0.4 nM

**Q.** Which IC50 [1] does the source give for `CO[C@@H]1Cc2cc(F)ccc2-n2c(nnc2[C@H]2CC[C@H](Oc3ccccn3)CC2)C1` (single isomer, unassigned) [Example 176] here?
**A.** 1.1 nM

**Q.** What about the Ki [2] of the same molecule?
**A.** 0.4 nM

**Q.** What does the source list for `CO[C@H]1Cc2cc(F)ccc2-n2c(nnc2[C@H]2CC[C@H](Oc3ccccn3)CC2)C1` (single isomer, unassigned) [Example 177]?
**A.** IC50 [1]: 0.9 nM; Ki [2]: 0.3 nM

**Q.** For `NC1Cc2cc(Cl)ccc2-n2c(nnc2C2CCN(c3ccccn3)CC2)C1` (stereo not drawn) [Example 2, 8-chloro-1-[1-(pyridin-2-yl)piperidin-4-yl]-5,6-dihydro-4H-[1,2,4]triazolo[4,3-a][1]benzazepine-5-amine], which IC50 [1] is on record?
**A.** 170 nM

**Q.** And the Ki [2]?
**A.** 7 nM

**Q.** With `CC(=O)NC1Cc2cc(Cl)ccc2-n2c(nnc2C2CCN(c3ccccn3)CC2)C1` (stereo not drawn) [Example 3, N-[8-chloro-[1-(pyridin-2-yl)piperidin-4-yl]-5,6-dihydro-4H-[1,2,4]triazolo[4,3-a][1]benzazepin-5-yl]acetamide] as the molecule, how does the IC50 [1] read?
**A.** 16 nM

**Q.** And the Ki [2]?
**A.** 2.1 nM

**Q.** What does the source list for `CC(C)C(=O)NC1Cc2cc(Cl)ccc2-n2c(nnc2C2CCN(c3ccccn3)CC2)C1` (stereo not drawn) [Example 4]?
**A.** IC50 [1]: 825 nM; Ki [2]: 70 nM

**Q.** Which results are given for `CC(C)(C)OC(=O)NC1Cc2cc(Cl)ccc2-n2c(nnc2[C@H]2CC[C@H](Oc3ccccn3)CC2)C1` (stereo partly drawn) [Example 5, Tert-butyl {8-chloro-1-[trans-4-(pyridin-2-yloxy)cyclohexyl]-5,6-dihydro-4H-[1,2,4]triazolo[4,3-a][1]benzazepine-5-yl}carbamate]?
**A.** IC50 [1]: 17 nM; Ki [2]: 3.8 nM

**Q.** For `N[C@H]1Cc2cc(Cl)ccc2-n2c(nnc2[C@H]2CC[C@H](Oc3ccccn3)CC2)C1` [Example 7, (5S)-8-chloro-1[trans-4-(pyridin-2-yloxy)cyclohexyl]-5,6-dihydro-4H-[1,2,4]triazolo[4,3-a][1]benzazepine-5-amine], which IC50 [1] is on record?
**A.** 20 nM

**Q.** And the Ki [2]?
**A.** 2.1 nM

**Q.** For `NCC(=O)NC1Cc2cc(Cl)ccc2-n2c(nnc2[C@H]2CC[C@H](Oc3ccccn3)CC2)C1` (stereo partly drawn) [Example 10, N-{8-chloro-1-[trans-4-(pyridin-2-yloxy)cyclohexyl]-5,6-dihydro-4H-[1,2,4]triazolo[4,3-a][1]benzazepin-5-yl}glycinamide], which IC50 [1] is on record?
**A.** 12 nM

**Q.** What about the Ki [2] of the same molecule?
**A.** 1.8 nM

**Q.** Which results are given for `NCC(=O)N[C@H]1Cc2cc(Cl)ccc2-n2c(nnc2[C@H]2CC[C@H](Oc3ccccn3)CC2)C1` [Example 11, N-{(5S)-8-chloro-1-[trans-4-(pyridin-2-yloxy)cyclohexyl]-5,6-dihydro-4H-[1,2,4]triazolo[4,3-a][1]benzazepin-5-yl}glycinamide]?
**A.** IC50 [1]: 480 nM; Ki [2]: 32 nM

**Q.** Which IC50 [1] does the source give for `N[C@H](C(=O)N[C@@H]1Cc2cc(Cl)ccc2-n2c(nnc2[C@H]2CC[C@H](Oc3ccccn3)CC2)C1)c1ccccc1` [Example 13, (2S)-2-amino-N-{(5R)-8-chloro-1-[trans-4-(pyridin-2-yloxy)cyclohexyl]-5,6-dihydro-4H-[1,2,4]triazolo[4,3-a][1]benzazepin-5-yl}-2-phenylacetamide] here?
**A.** 45 nM

**Q.** And the Ki [2]?
**A.** 5 nM

**Q.** What does the source list for `N[C@@H](C(=O)N[C@@H]1Cc2cc(Cl)ccc2-n2c(nnc2[C@H]2CC[C@H](Oc3ccccn3)CC2)C1)c1ccccc1` [Example 14, (2R)-2-amino-N-{(5R)-8-chloro-1-[trans-4-(pyridin-2-yloxy)cyclohexyl]-5,6-dihydro-4H-[1,2,4]triazolo[4,3-a][1]benzazepin-5-yl}-2-phenylacetamide]?
**A.** IC50 [1]: 10 nM; Ki [2]: 1.1 nM

**Q.** Which results are given for `O=C(CO)NC1Cc2cc(Cl)ccc2-n2c(nnc2[C@H]2CC[C@H](Oc3ccccn3)CC2)C1` (stereo partly drawn) [Example 15, N-{8-chloro-1-[trans-4-(pyridin-2-yloxy)cyclohexyl]-5,6-dihydro-4H-[1,2,4]triazolo[4,3-a][1]benzazepin-5-yl}-2-hydroxyacetamide]?
**A.** IC50 [1]: 3.7 nM; Ki [2]: 0.4 nM

**Q.** `CN(C)C(=O)NC1Cc2cc(Cl)ccc2-n2c(nnc2[C@H]2CC[C@H](Oc3ccccn3)CC2)C1` (stereo partly drawn) [Example 16, 3-{8-chloro-1-[trans-4-(pyridin-2-yloxy)cyclohexyl]-5,6-dihydro-4H-[1,2,4]triazolo[4,3-a][1]benzazepin-5-yl}-1,1-dimethylurea] was tested. Which IC50 [1] did it give?
**A.** 10 nM

**Q.** And the Ki [2]?
**A.** 3 nM

**Q.** Which IC50 [1] does the source give for `CN(C)CC(=O)NC1Cc2cc(Cl)ccc2-n2c(nnc2[C@H]2CC[C@H](Oc3ccccn3)CC2)C1` (stereo partly drawn) [Example 17, N-{8-chloro-1-[trans-4-(pyridin-2-yloxy)cyclohexyl]-5,6-dihydro-4H-[1,2,4]triazolo[4,3-a][1]benzazepin-5-yl}-N^2,N^2-dimethylglycinamide] here?
**A.** 35 nM

**Q.** And the Ki [2]?
**A.** 2.1 nM

**Q.** For `CN(C)C1Cc2cc(Cl)ccc2-n2c(nnc2[C@H]2CC[C@H](Oc3ccccn3)CC2)C1` (stereo partly drawn) [Example 22, 8-chloro-N,N-dimethyl-1-[trans-4-(pyridin-2-yloxy)cyclohexyl]-5,6-dihydro-4H-[1,2,4]triazolo[4,3-a][1]benzazepine-5-amine], which IC50 [1] is on record?
**A.** 2.8 nM

**Q.** And the Ki [2]?
**A.** 0.5 nM

**Q.** Which results are given for `Clc1ccc2c(c1)CC(NC1CCC1)Cc1nnc([C@H]3CC[C@H](Oc4ccccn4)CC3)n1-2` (stereo partly drawn) [Example 27, 8-chloro-N-cyclobutyl-1-[trans-4-(pyridin-2-yloxy)cyclohexyl]-5,6-dihydro-4H-[1,2,4]triazolo[4,3-a][1]benzazepine-5-amine]?
**A.** IC50 [1]: 7 nM; Ki [2]: 1.1 nM

**Q.** What does the source list for `Clc1ccc2c(c1)CC(NC1COC1)Cc1nnc([C@H]3CC[C@H](Oc4ccccn4)CC3)n1-2` (stereo partly drawn) [Example 28, 8-chloro-N-(oxetan-3-yl)-1[trans-4-(pyridin-2-yloxy)cyclohexyl]-5,6-dihydro-4H-[1,2,4]triazolo[4,3-a][1]benzazepine-5-amine]?
**A.** IC50 [1]: 5.4 nM; Ki [2]: 0.7 nM

**Q.** Which results are given for `FC1(F)CCC(NC2Cc3cc(Cl)ccc3-n3c(nnc3[C@H]3CC[C@H](Oc4ccccn4)CC3)C2)CC1` (stereo partly drawn) [Example 30, 8-chloro-N-(4,4-difluorocyclohexyl)-1-[trans-4-(pyridin-2-yloxy)cyclohexyl]-5,6-dihydro-4H-[1,2,4]triazolo[4,3-a][1]benzazepine-5-amine]?
**A.** IC50 [1]: 15 nM; Ki [2]: 1.4 nM

**Q.** With `COc1ccc2c(c1)CC(N)Cc1nnc([C@H]3CC[C@H](Oc4ccccn4)CC3)n1-2` (stereo partly drawn) [Example 31, 8-methoxy-1-[trans-4-(pyridin-2-yloxy)cyclohexyl]-5,6-dihydro-4H-[1,2,4]triazolo[4,3-a][1]benzazepine-5-amine hydrochloride] as the molecule, how does the IC50 [1] read?
**A.** 260 nM

**Q.** And the Ki [2]?
**A.** 17 nM

**Q.** Which results are given for `COc1ccc2c(c1)CC(NC(C)C)Cc1nnc([C@H]3CC[C@H](Oc4ccccn4)CC3)n1-2` (stereo partly drawn) [Example 32, 8-methoxy-N-(propan-2-yl)-1-[trans-4-(pyridin-2-yloxy)cyclohexyl]-5,6-dihydro-4H-[1,2,4]triazolo[4,3-a][1]benzazepine-5-amine]?
**A.** IC50 [1]: 85 nM; Ki [2]: 6 nM

**Q.** For `CC(C)NC1Cc2cc(Cl)ccc2-n2c(nnc2C2CC(F)(F)C2)C1` (stereo not drawn) [Example 41, 8-chloro-1-(3,3-difluorocyclobutyl)-N-(propan-2-yl)-5,6-dihydro-4H-[1,2,4]triazolo[4,3-a][1]benzazepine-5-amine], which Ki [2] is on record?
**A.** 600 nM

**Q.** For `CC(C)NC1Cc2cc(Cl)ccc2-n2c(nnc2C2CCC(F)(F)CC2)C1` (stereo not drawn) [Example 42, 8-chloro-1-(4,4-difluorocyclohexyl)-N-(propan-2-yl)-5,6-dihydro-4H-[1,2,4]triazolo[4,3-a][1]benzazepine-5-amine], which “% at 1 μM, printed in the column Ki (nM) on hV1a cell line” value ([2]; at 1 μM) is on record?
**A.** 42% at 1 μM
